Measured values: US20150132229A1, “BIS AZAINOSITOL HEAVY METAL COMPLEXES FOR X-RAY IMAGING” (BAYER PHARMA AKTIENGESELLSCHAFT, priority 2012, published 2015)

Assays:
Han-Wistar rat = test: Preclinical X-ray imaging: contrast enhanced CT of an anaesthetized rat; type: in vivo; details: i.v. tail vein, 200 mg Lu per kg body weight, 149 mg Lu/mL, 120 kV
Method: The study was performed on a clinical CT unit (Sensation 64, Siemens Medical Solutions, Erlangen, Germany) with an anaesthetized rat. The compound described in example 2 was used as X-ray diagnostic agents in order to perform contrast enhanced CT imaging.
The study was performed on a healthy Han-Wistar rat. Initial anaesthesia was induced by inhalation of 4% Isoflurane (Baxter Deutschland GmbH, Unterschleiβheim, Germany) and maintained by 1.5% Isoflurane. The X-ray diagnostic agent (Example 2) at a concentration of 149 mg Lu/mL was administered intravenously via the tail vein by the help of a dedicated injection pump (flow rate=0.6 mL/s). A dosage of 200 mg Lu per kg body weight was used. In order to simulate a clinical condition the rat was placed within a tissue equivalent phantom (QRM, Möhrendorf, Germany) that mimics the human abdomen in respect of X-ray absorption.
An X-ray projection image (topogram) was acquired to adjust the measurement range to the thoracal region of the animal. The subsequent contrast enhanced measurement was done with following CT parameter settings: X-ray tube voltage=120 kV, mAs-product=160 mAs, tube rotational time=0.5 s, slice thickness=2.4 mm, measurement time=20 s. […]
The signal-time course in the left heart chamber was quantified by a region of interest analysis. […]

mice = test: Tolerability in mice (behaviour and survival after 7 d); type: in vivo; details: i.v. tail vein
Method: An aqueous solution of Na3[Lu3(H−3tacita)2](in 10 mM trometamol buffer, pH 7.4, 148 mg Lu/mL) was injected in the tail vein of 1-3 mice for each dose group (22-25 g) at increasing doses ranging from 1000 to 3000 mg Lu/kg. The behaviour of the animals and the survival after 7 d was recorded.

[1] = Stability of bis azainositol heavy metal complexes under heat sterilization (121° C., 45 min, pH 7.4; HPLC and ICP-OES); details: aqueous buffered solution pH 7.4, 5 mmol/L, 121° C. for 45 min in steam autoclave; absolute stability = HPLC peak area ratio x metal concentration ratio after/before
Method: The stability of bis azainositol heavy metal complexes was determined in aqueous, buffered solution at pH 7.4. The solution containing 5 mmol/L of the compound in a tightly sealed vessel was heated to 121° C. for 45 min in a steam autoclave. The metal concentration of the solution was determined by ICP-OES before and after heat treatment. The integrity of the compound was determined by HPLC analysis before and after heat treatment. Absolute stability was calculated as the ratio of the peak area of the compound after and before the heat treatment multiplied with the ratio of the metal concentration of the solution after and before heat treatment.
Column: Reversed phase C18. […] Solvent B: methanol, HPLC grade Gradient: gradients starting from 100% A and 0% B were used. Flow: 1 mL/min Detector D1: element specific detection by ICP-OES running at the most sensitive emission wavelength of the respective complexed metal. Detector D2: element specific detection by ICP-MS running at the most abundant isotope of the respective complexed metal.

[2] = Excretion in rats (Hafnium in urine, faeces, organs and carcass by ICP-MS); type: in vivo; details: i.v. 150 mg Hf/kg
Method: An aqueous solution of [Hf3(H−3tacitp)2](in 10 mM trometamol buffer, pH 7.4, 60 mg Hf/mL) was injected in the tail vein of 3 rats (ca. […]) at a dose of 150 mg Hf/kg. Urine samples were collected at the following time intervals: 0-0.5, 0.5-1, 1-3, 3-6, 6-24 h and then daily until day 7. Faeces was collected daily until day 7. On day 7 the animals were sacrificed and the following organs were excised: liver, kidneys, spleen, heart, lung, brain, lymph nodes, muscle, gut, duodenum, skin, bone marrow, bone. The remaining body was freeze dried and ground to obtain a fine powder.
The Hafnium concentration in all specimen was determined after digestion in oxidizing solution (nitric acid and hydrogen peroxide) at elevated pressure and temperature. The measurement of Hafnium was performed by ICP-MS.

[3] = Pharmacokinetics in rats (Hafnium blood concentration by ICP-MS, 3-compartment model); type: in vivo; details: i.v. 150 mg Hf/kg
Method: An aqueous solution of [Hf3(H−3tacitp)2](in 10 mM trometamol buffer, pH 7.4, 60 mg Hf/mL) was injected in the tail vein of 3 rats (ca. 250 g) at a dose of 150 mg Hf/kg. Blood samples were collected via a catheter from the arteria carotis at the following times: 1, 2, 5, 10, 15, 30, 60, 90, 120, 240, 360 and 1440 min after injection.
The Hafnium concentration in all blood samples was determined after digestion in oxidizing solution (nitric acid and hydrogen peroxide) at elevated pressure and temperature. The measurement of Hafnium was performed by ICP-MS.
The pharmacokinetic parameters were obtained for each animal by fitting the blood concentrations to a 3-compartment model, using the software WinNonlin.

Substance: Trisodium bis{μ3-[(all-cis)-2-{[(carboxy-1κO)methyl]amino-1κN}-4-{[(carboxy-2κO)methyl]amino-2κN}-6-{[(carboxy-3κO)methyl]amino-3κN}cyclohexane-1,3,5-triolate-1κ^2O^1,O^3:2κ^2O^3,O^5:3κ^2O^1,O^5]}trilutetate(III) [Example 2]
- CT signal change in blood vessels and heart chambers during passage of the diagnostic agent (Han-Wistar rat): strong signal increase
- survival after 7 d (mice; 1000 mg Lu/kg): all animals survived
- survival after 7 d (mice; 2000 mg Lu/kg): all animals survived
- survival after 7 d (mice; 2500 mg Lu/kg): all animals survived
- survival after 7 d (mice; 3000 mg Lu/kg): 2 of 3 animals died
- Stability [1]: 100%

Substance: Bis{μ3-[(all-cis)-2-{[(carboxy-1κO)ethyl]amino-1κN}-4-{[(carboxy-2κO)ethyl]amino-2κN}-6-{[(carboxy-3κO)ethyl]amino-3κN}cyclohexane-1,3,5-triolate-1κ^2O^1,O^3:2κ^2O^3,O^5:3κ^2O^1,O^5]}trihafnium(IV) [Example 13]
- injected Hafnium excreted via the urine ([2]; after 1 d, cumulative): 96%
- Hafnium content of organs other than kidney ([2]; after 7 d): ≤ 0.01 % of the injected dose/g organ (wet weight)
- injected Hafnium found in all organs and the carcass together ([2]; after 7 d): 0.33%
- injected Hafnium excreted via the urine ([2]; after 7 d, cumulative): 97%
- injected Hafnium found in faeces ([2]; after 7 d, cumulative): About 1.3%
- total plasma clearance [3]: 10 ± 0.6 mL/min/kg
- blood half live ([3]; elimination phase): 22.6 ± 3.1 min
- volume of distribution ([3]; elimination phase): 0.31±0.01 I/kg

Substance: Bis{μ3-[(all-cis)-2-{[(carboxy-1κO)methyl]amino-1κN}-4-{[(carboxy-2κO)methyl]amino-2κN}-6-{[(carboxy-3κO)methyl]amino-3κN}cyclohexane-1,3,5-triolate-1κ^2O^1,O^3:2κ^2O^3,O^5:3κ^2O^1,O^5]}trihafnium(IV) [Example 1]
- Stability [1]: 102%

Substance: Trisodium bis{μ3-[(all-cis)-2-{[(carboxy-1κO)ethyl](methyl)-amino-1κN}-4-{[(carboxy-2κO)ethyl](methyl)amino-2κN}-6-{[(carboxy-3κO)ethyl]-(methyl)amino-3κN}cyclohexane-1,3,5-triolate-1κ^2O^1,O^3:2κ^2O^3,O^5:3κ^2O^1,O^5]}trilutetate(III) [Example 19]
- Stability [1]: 90%

Substance: Trisodium bis{μ3-(all-cis)-2-{[(carboxy-1κO)ethyl](methyl)-amino-1κN}-4-{[(carboxy-2κO)ethyl](methyl)amino-2κN}-6-{[(carboxy-3κO)ethyl]-(methyl)amino-3κN}cyclohexane-1,3,5-triolate-1κ^2O^1,O^3:2κ^2O^3,O^5:3κ^2O^1,O^5]}triytterbate(II) [Example 23]
- Stability [1]: 96%
